# Reference: article PMC2360237, “A phase Ib study of pertuzumab, a recombinant humanised antibody to HER2, and docetaxel in patients with advanced solid tumours” (British Journal of Cancer, 2007)
# Read-outs that look alike come from different tables or passages of the source.
# Experiments:
# [1] = system: patients with advanced solid tumours
# Method: This was a phase Ib, open-label, two-center study. […] Pertuzumab was provided by F Hoffmann-La Roche (Basel, Switzerland). Each 10 ml single-use vial contained 175 mg of pertuzumab formulated in 10 mmol l^−1 L-histidine (pH6.0), 240 mmol l^−1 sucrose, and 0.02% polysorbate 20. The first dose of pertuzumab was given by intravenous infusion over 90 min. […] Initially, the planned dose of pertuzumab was fixed dose at 1050 mg for each dose level. […] The dose of docetaxel was sequentially escalated from 60 to 75 to 100 mg m^−2 as outlined in Table 1. […] Initially, three patients were treated in cohort 1, with the first patient being monitored for at least 2 weeks before additional patients were treated. Escalation to a new dose level was permitted when at least two of three patients had been evaluated for 3 weeks. […] At least six patients were to be treated at the 75 and 100 mg m^−2 dose levels before a recommended phase II dose was declared. […]
# The incidence and severity of all adverse events, changes in vital signs, laboratory assessments, physical examination findings, and medical conditions during and after treatment with pertuzumab were assessed at least weekly during the first two cycles, and at least weekly three times thereafter, and graded according to NCI-CTC Version 3. […]
# [2] = system: refractory ovarian cancer; HRPC; details: cited from earlier work
# [3] = system: patients with advanced cancer; details: cited from earlier work
# [4] = Pertuzumab serum pharmacokinetics (receptor-binding ELISA, non-compartmental) in phase Ib patients; details: for AUC0-last mean (range) / AUC0-∞ mean (range) / Cl mean (range) / Cmax mean (range) / Vss mean (range): serum
# Method: (§1) In the first treatment cycle, blood withdrawal for PK analysis was performed 15 and 30 min prior to administration of docetaxel and 15 and 30 min and 1, 2, 4, 8 and 23 h, post administration. Pertuzumab was administered at least 24 h after, on day 2, followed by PK analysis at 15 min and 1.5, 4 and 8 h. In the second cycle, pertuzumab was administered on day 1, immediately followed by the administration of docetaxel and sampling for PK analysis was repeated for both drugs. Plasma samples of docetaxel were analysed using a validated specific liquid chromatography-mass spectrometry (LC-MS/MS) method as described previously ([Agus et al, 2005]). Serum samples were assayed for pertuzumab concentrations using a receptor-binding, enzyme-linked immunosorbent assay. The assay uses immobilised antigen p185^HER2 ECD to capture pertuzumab from serum samples. Bound pertuzumab was detected with mouse anti-human Fc-horseradish peroxidase (Jackson ImmunoResearch Laboratories Inc., West Grove, PA, USA), and tetramethyl benzidine (KPL Inc., Gaithersburg, MD, USA) used as the substrate for colour development to quantify serum pertuzumab against a known standard curve. The assay has a minimum quantifiable concentration of 0.25 μg ml^−1 for pertuzumab in human serum. Pharmacokinetic parameters for docetaxel and pertuzumab were estimated using non-compartmental methods (WinNonLin software version 5.0.1).
# [5] = Docetaxel plasma pharmacokinetics (LC-MS/MS, non-compartmental) alone and with pertuzumab in phase Ib patients; type: in vivo, human; details: for AUC(0-inf) / Cmax / half-life: human, plasma, intravenous; for AUC(0-inf): read-out: AUC0-∞ mean (range); for Cmax: read-out: Cmax mean (range); for half-life: read-out: t1/2 mean (range) (converted)
# Method: as §1
# [6] = pertuzumab 420 mg, cycle 2, n=10, in combination with docetaxel
# [7] = pertuzumab 840 mg (loading dose), cycle 1, n=11, in combination with docetaxel
# [8] = pertuzumab 1050 mg, cycle 1, n=8, in combination with docetaxel
# [9] = pertuzumab 1050 mg, cycle 2, n=7, in combination with docetaxel
# [10] = Cohort 1, docetaxel 60 mg m^−2 + pertuzumab 1050 mg, cycle 2, n=6, plasma
# [11] = Cohort 1, docetaxel 60 mg m^−2 alone, cycle 1, n=6, plasma
# [12] = Cohort 2A, docetaxel 75 mg m^−2 + pertuzumab 420 mg, cycle 2, n=6, plasma
# [13] = Cohort 2A, docetaxel 75 mg m^−2 alone, cycle 1, n=6, plasma
# [14] = Cohort 3A, docetaxel 100 mg m^−2 + pertuzumab 420 mg, cycle 2, n=4, plasma
# [15] = Cohort 3A, docetaxel 100 mg m^−2 alone, cycle 1, n=5, plasma
# [16] = 60 mg m^−2, Cohort 1, docetaxel 60 mg m^−2 alone, cycle 1, n=6, plasma
# [17] = 75 mg, Cohort 2A, docetaxel 75 mg m^−2 alone, cycle 1, n=6, plasma
# [18] = 100 mg, Cohort 3A, docetaxel 100 mg m^−2 alone, cycle 1, n=5, plasma
compound,measurement,setting,value
"pertuzumab: fully humanised monoclonal antibody, which acts by blocking the association of HER2 with other HER family members",Recommended phase II dose of pertuzumab in the combination,"[1]; in vivo, iv",420 mg
same,Anti-tumour activity,"[2]; single-agent pertuzumab, refractory ovarian cancer, ref Gordon et al, 2006",Significant anti-tumour activity
same,Anti-tumour activity,"[2]; single-agent phase II study, HRPC, ref De Bono et al, 2007",no evidence of anti-tumour activity
same,Terminal elimination half-life,[3]; in vivo,2–4 weeks
same,Tolerability,[3]; in vivo,well tolerated
same,Maximum tolerated dose,"[3]; single-agent pertuzumab, phase I studies, not reached, ref Agus et al, 2005",> 15 mg/kg
same,PK parameters of pertuzumab in the presence of docetaxel compared with single agent,"[4]; 1050 mg cycles 1 and 2, 840 mg cycle 1 and 420 mg cycle 2",comparable with single agent values
same,AUC0-last mean (range),[4]; [6],1491 (914–2289) μg day ml^−1
same,AUC0-∞ mean (range),[4]; [6],2762 (1639–3827) μg day ml^−1
same,Cl mean (range),[4]; [6],169 (110–256) ml per day
same,Cmax mean (range),[4]; [6],150 (102–233) μg ml^−1
same,Vss mean (range),[4]; [6],4233 (2823–7058) ml
same,AUC0-last mean (range),[4]; [7],1749 (1214–3083) μg day ml^−1
same,AUC0-∞ mean (range),[4]; [7],2796 (1604–5116) μg day ml^−1
same,Cl mean (range),[4]; [7],329 (164–524) ml per day
same,Cmax mean (range),[4]; [7],255 (169–447) μg ml^−1
same,AUC0-last mean (range),[4]; [8],2390 (1733–3355) μg day ml^−1
same,AUC0-∞ mean (range),[4]; [8],3951 (2348–4980) μg day ml^−1
same,Cl mean (range),[4]; [8],282 (211–447) ml per day
same,Cmax mean (range),[4]; [8],301 (143–394) μg ml^−1
same,Vss mean (range),[4]; [8],5214 (2975–7036) ml
same,AUC0-last mean (range),[4]; [9],3500 (3010–4346) μg day ml^−1
same,AUC0-∞ mean (range),[4]; [9],6856 (4521–11426) μg day ml^−1
same,Cmax mean (range),[4]; [9],368 (253–463) μg ml^−1
same,Vss mean (range),[4]; [9],4672 (3023–6580) ml
"CC(=O)O[C@@]12CO[C@@H]1C[C@H](O)[C@@]1(C)C(=O)[C@H](O)C3=C(C)[C@@H](OC(=O)[C@H](O)[C@@H](NC(=O)OC(C)(C)C)c4ccccc4)C[C@@](O)([C@@H](OC(=O)c4ccccc4)[C@H]21)C3(C)C [docetaxel, Docetaxel]",Cl mean (range),[5]; [10],36 (23–40) × 10^3 ml h m^−2
same,Vss mean (range),[5]; [10],102 (64–154) × 10^4 ml m^−2
same,Cl mean (range),[5]; [11],33 (28–39) × 10^3 ml h m^−2
same,Vss mean (range),[5]; [11],79 (42–100) × 10^4 ml m^−2
same,Cl mean (range),[5]; [12],24 (15–34) × 10^3 ml h m^−2
same,Vss mean (range),[5]; [12],57 (20–110) × 10^4 ml m^−2
same,Cl mean (range),[5]; [13],22 (13–31) × 10^3 ml h m^−2
same,Vss mean (range),[5]; [13],41 (18–70) × 10^4 ml m^−2
same,Cl mean (range),[5]; [14],22 (12–41) × 10^3 ml h m^−2
same,Vss mean (range),[5]; [14],43 (16–76) × 10^4 ml m^−2
same,Cl mean (range),[5]; [15],18 (12–28) × 10^3 ml h m^−2
same,Vss mean (range),[5]; [15],25 (16–32) × 10^4 ml m^−2
same,"Pharmacokinetic drug–drug interaction (Cmax, AUC and clearance of docetaxel alone vs in combination with pertuzumab)",[5]; cycle 1 alone vs cycle 2 combined,no drug–drug interaction
same,AUC(0-inf),[5]; [16],1840 ng·h/mL
same,Cmax,[5]; [16],1640 ng/mL
same,half-life,[5]; [16],16.9 h
same,AUC(0-inf),[5]; [17],3740 ng·h/mL
same,Cmax,[5]; [17],3130 ng/mL
same,half-life,[5]; [17],12.7 h
same,AUC(0-inf),[5]; [18],5930 ng·h/mL
same,Cmax,[5]; [18],5450 ng/mL
same,half-life,[5]; [18],9.59 h
same,AUC(0-inf),[5]; [10],1730 ng·h/mL
same,Cmax,[5]; [10],1700 ng/mL
same,half-life,[5]; [10],19.7 h
same,AUC(0-inf),[5]; [12],3500 ng·h/mL
same,Cmax,[5]; [12],2720 ng/mL
same,half-life,[5]; [12],15.2 h
same,AUC(0-inf),[5]; [14],5220 ng·h/mL
same,Cmax,[5]; [14],4700 ng/mL
same,half-life,[5]; [14],12.8 h
same,Recommended phase II dose of docetaxel in the combination,"[1]; with pertuzumab 420 mg following a loading dose of 840 mg, intravenously every 3 weeks",75 mg m^−2
